The values that follow come from patent publication US11319316B2, “Compounds that induce degradation of anti-apoptotic Bcl-2 family proteins and the uses thereof” (BioVentures, LLC, priority 2016, dated 2022).

Common to all, as to assay type: cell-based
For one experiment, the system named is Normal WI38 (NSC). In words: Viability of normal WI38 cells (NSC), 72 h, PI staining and flow cytometry. The gist of the method: (§1)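 Normal and irradiation-induced senescent WI38 fibroblasts were exposed to vehicle or increasing compound concentrations for 72 h. Harvested cells stained with propidium iodide (100 ng/ml); PI-negative viable cells counted by flow cytometry as percent of vehicle control, giving EC50.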

Experiment [1] deals with T1, Bcl-xL (Homo sapiens, UniProt Q07817).
T1 construct: endogenous in cells; host or cells: WI38 cells (normal NC-WI38 and ionizing-radiation-induced senescent IR-SC WI38)
In words: Protein degradation assay (Western blot) in IR-SC WI38 cells. On the procedure: IR-SC WI38 cells were incubated with vehicle or increasing concentrations of XZ-14439 for 18 hours at increasing […] (FIG. 3A) and at a fixed concentration of XZ-14439 for increasing times (FIG. […]). The cells were digested with 0.25% trypsin and 1 mM EDTA, and harvested in RIPA lysis buffer with 1% Phosphatase Inhibitor Cocktail 3 and 1% Protease Inhibitor Cocktail. An equal amount of protein (15-30 μg/lane) from each cell extract was resolved on a 12% SDS-PAGE gel. Proteins were blotted onto a NOVEX PVDF membrane by electrophoresis. The membranes were blocked with TBS-T blocking buffer (5% nonfat milk in 25 mM Tris-HCL, pH 7.4; 3 mM KCl; […] NaCl; and 0.05% Tween) and probed with primary antibodies (at a predetermined optimal concentration) overnight at 4° C. or for 1 hour at room temperature. After extensive washing with TBS-T, the membranes were incubated with an appropriate peroxidase-conjugated secondary antibody for 1 hour at room temperature. After three washes with TBS-T, the proteins of interest were detected with ECL Western Blotting Detection Reagents and recorded with autoradiography (Pierce Biotech, Rockford, Ill., USA). The primary antibody Bcl-x (#2762), Bcl-2 antibody (#2872S) and β-actin (13E5, #4970) were purchased from Cell Signaling.
(§2) IR-SC WI38 (FIG. 4A) and RS4; 11 (FIG. 4B) cells were incubated with vehicle or increasing concentrations of compounds of Formula (I) or Formula (II) for 6 or 16 hours, at 1 μM (FIG. 4A) and 100 nm (FIG. 4B), respectively. The cells were harvested in RIPA lysis buffer with 1% Phosphatase Inhibitor Cocktail 3 and 1% Protease Inhibitor Cocktail. An equal amount of protein (15-30 μg/lane) from each cell extract was resolved on a 12% SDS-PAGE gel. Proteins were blotted onto a NOVEX PVDF membrane by electrophoresis. The membranes were blocked with TBS-T blocking buffer (5% nonfat milk in 25 mM Tris-HCL, pH 7.4; 3 mM KCl; 140 mM NaCl; and 0.05% Tween) and probed with primary antibodies (at a predetermined optimal concentration) overnight at 4° C. or for 1 hour at room temperature. After extensive washing with TBS-T, the membranes were incubated with an appropriate peroxidase-conjugated secondary antibody (Jackson ImmunoResearch Europe, Suffolk, UK) for 1 hour at room temperature. After three washes with TBS-T, the proteins of interest were detected with ECL Western Blotting Detection Reagents and recorded with autoradiography. The primary antibody Bcl-xl (#2762), Bcl-2 antibody (#2872S), Bcl-w (#2724S), Mcl-1 (#5453s) and β-actin (13E5, #4970) were purchased from Cell Signaling.

The subject of the next experiment is RS4; 11 cancer cells. In words: Cancer cell viability by MTS, 72 h, RS4;11. Conditions: RS4;11 cells. On the procedure:
(§3) RS4; 11 and NCI-H146 cancer cells were incubated with vehicle or increasing concentrations of compounds of Formula (I) and Formula (II). At 72 hours post-treatment cell viability was measured by MTS and EC50 was calculated as a percentage of control cells treated with vehicle. Table 1 depicts the EC50 values of compounds of Formula (I) and Formula (II) against RS4; 11 and NCI-H146.

Experiment [2] has as its system IR-induced senescent WI38 cells (IR-SC). In words: Viability of IR-induced senescent WI38 cells (IR-SC), 72 h, PI staining and flow cytometry. Conditions: for EC50: IR-induced senescent WI38 cells, 72 hours, viable (PI-) cells as percentage of vehicle control; for Ratio NSC/SC: ratio of WI38 EC50 in NSC to EC50 in IR-SC. The method, boiled down: as §1
The test system of a further experiment is NCI-H146 cancer cells. The experiment can be described thus: Cancer cell viability by MTS, 72 h, NCI-H146. On the procedure: as §3
Experiment [3] addresses T1, Bcl-xL. In words: Protein degradation assay (Western blot) in RS4;11 cells. Also noted: dose or concentration left out as unconfirmed. On the procedure:
as §2, with “IR-SC WI38 (FIG. 4A) and RS4; 11 (FIG. 4B) cells were incubated with vehicle or increasing concentrations of compounds of Formula (I) or Formula (II) for 6 or 16 hours, at 1 μM (FIG. 4A) and 100 nm (FIG. 4B), respectively.” left out

For experiment [4], the target named is T1, Bcl-xL. The experiment can be described thus: Bcl-xL depletion in normal WI38 (NC-WI38) cells. Conditions: 2 μM; FIG. 1.
Setting [5] is: Homo sapiens, WI-38, viable (PI-) cells as percentage of vehicle control.

Read-outs that look alike come from different tables or passages of the source.

T1 sequence (Q07817 whole entry): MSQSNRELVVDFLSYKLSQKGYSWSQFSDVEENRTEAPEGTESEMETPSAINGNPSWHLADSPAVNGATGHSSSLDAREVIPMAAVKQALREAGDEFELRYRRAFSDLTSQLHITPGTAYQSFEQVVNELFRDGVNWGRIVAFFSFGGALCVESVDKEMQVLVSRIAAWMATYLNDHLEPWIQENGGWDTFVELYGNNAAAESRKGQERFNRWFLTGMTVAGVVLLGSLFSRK

Regarding `CC1(C)CCC(c2ccc(Cl)cc2)=C(CN2CCN(c3ccc(C(=O)NS(=O)(=O)c4ccc(N[C@H](CCN5CCN(C(=O)CCCn6cc(COCCOCCNc7cccc8c7C(=O)N(C7CCC(=O)NC7=O)C8=O)nn6)CC5)CSc5ccccc5)c(S(=O)(=O)C(F)(F)F)c4)cc3)CC2)C1` (stereo partly drawn) [PZ-15227], the EC50 was over 10000 nM with Normal WI38 (NSC) (viable (PI-) cells as percentage of vehicle control), 114 nM with RS4; 11 cancer cells, 108 nM in experiment [2] and 68.9 nM in the experiment with NCI-H146 cancer cells. Further, the “Bcl-xL depletion in IR-SC WI38 cells” value on Bcl-xL [1] (1 μM (FIG. 4A)) was “deplete Bcl-xL”. The “Ratio NSC/SC” value in experiment [2] is recorded as over 92. Further, the “Bcl-xL depletion in RS4; 11 cells” value on Bcl-xL [3] is on record as “deplete Bcl-xL”.

Take `CC1(C)CCC(c2ccc(Cl)cc2)=C(CN2CCN(c3ccc(C(=O)NS(=O)(=O)c4ccc(N[C@H](CCN5CCN(CCOCCNc6cccc7c6C(=O)N(C6CCC(=O)NC6=O)C7=O)CC5)CSc5ccccc5)c(S(=O)(=O)C(F)(F)F)c4)cc3)CC2)C1` (stereo partly drawn) [XZ-15416, 4-(4-((4′-chloro-4,4-dimethyl-3,4,5,6-tetrahydro-[1,1′-biphenyl]-2-yl)methyl)piperazin-1-yl)-N-((4-(((2R)-4-(4-(2-(2-((2-(2,6-dioxopiperidin-3-yl)-1,3-dioxoisoindolin-4-yl)amino)ethoxy)ethyl)piperazin-1-yl)-1-(phenylthio)butan-2-yl)amino)-3-((trifluoromethyl)sulfonyl)phenyl)sulfonyl)benzamide]: the EC50 was over 10000 nM with Normal WI38 (NSC) (setting [5]); 30.7 nM with RS4; 11 cancer cells (Homo sapiens); under 156 nM in experiment [2] (Homo sapiens, WI-38); over 10 nM with NCI-H146 cancer cells (Homo sapiens). For the same compound, on Bcl-xL [1] (1 μM (FIG. 4A)), the “Bcl-xL depletion in IR-SC WI38 cells” value is “deplete Bcl-xL”. In addition, in experiment [2], the “Ratio NSC/SC” value was over 64.02. For the same compound, the “Bcl-xL depletion in RS4; 11 cells” value at Bcl-xL [3] is “deplete Bcl-xL”.

On to `O=C1CCC(N2C(=O)c3cccc(NCCOCCOCCOCc4cn(CCCC(=O)N5CCN(CC#Cc6ccc(OCCCc7sc(N8CCc9cccc(C(=O)Nc%10nc%11ccccc%11s%10)c9C8)nc7C(=O)O)c(F)c6)CC5)nn4)c3C2=O)C(=O)N1` (stereo not drawn) [XZ-13906, 2-(8-(benzo[d]thiazol-2-ylcarbamoyl)-3,4-dihydroisoquinolin-2(1H)-yl)-5-(3-(4-(3-(4-(4-(4-((2-(2-(2-(2-(2,6-dioxopiperidin-3-yl)-1,3-dioxoisoindolin-4-ylamino)ethoxy)ethoxy)ethoxy)methyl)-1H-1,2,3-triazol-1-yl)butanoyl)piperazin-1-yl)prop-1-ynyl)-2-fluorophenoxy)propyl)thiazole-4-carboxylic acid], for which the EC50 in the experiment with Normal WI38 (NSC) (setting [5]) is 100000 nM; with RS4; 11 cancer cells (Homo sapiens), over 2000 nM; in experiment [2] (Homo sapiens, WI-38), 2400 nM; in the experiment with NCI-H146 cancer cells (Homo sapiens), over 2000 nM. Further, at Bcl-xL [4], the “Bcl-xL depletion in normal WI38 (NC-WI38)” value was “depletes Bcl-xL”. For the same compound, the “Bcl-xL depletion in IR-SC WI38 cells” value on Bcl-xL [1] (2 μM, FIG. 1) is “depletes Bcl-xL”. The “Ratio NSC/SC” value in experiment [2] is on record as 41.67.
